Results filed as inconclusive are left out. Active and inactive are the calls of the source.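 Rule for the calls: active = compound giving calcium release at least equal to the estrogen response, or cutting estrogen-driven calcium release by 60% or more; inconclusive = compound glowing brighter than the detergent maximum; inactive = the rest.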
biological target: G-protein coupled estrogen receptor 1 (Homo sapiens) (UniProt Q99527); assay: GPER-mediated calcium mobilization modulators – HL-60 cells, Indo-1 fluorescence, 10 µM, primary screen (AID 1213); conditions: Indo-1 calcium mobilization, at 10 µM, stronger effect = higher value

**Q.** With `CC(C)C1Nc2ccc(C(=O)O)cc2C2C=CCC21` (centres undefined) as the compound, how does the calcium mobilization (agonist) read?
**A.** 0%

**Q.** With `O=C(OC1CCCCC1)c1ccc2c(c1)C1C=CCC1C(C(=O)O)N2` (centres undefined) as the compound, how does the calcium mobilization (agonist) read?
**A.** 0% (inactive)

**Q.** Which calcium mobilization (agonist) does the source give for `O=C(Cc1cccs1)Nc1ccc(S(=O)(=O)Nc2ncccn2)cc1` here?
**A.** 0% (inactive)

**Q.** How did the calcium mobilization (agonist) turn out when `Cc1cc(C)cc(OCC(=O)Nc2ccc(N3CCCC3)cc2)c1` was run?
**A.** 0% (inactive)

**Q.** `CCCCCCNC(=O)c1cc(-c2ccco2)nc2ccccc12` was tested. Which calcium mobilization (agonist) did it give?
**A.** 0% (inactive)

**Q.** With `N=C1C(c2nc3ccccc3[nH]2)=C(O)CN1c1ccc(CC(=O)O)cc1` as the compound, how does the calcium mobilization (agonist) read?
**A.** 0% (inactive)

**Q.** With `Cc1cc(C)c2c(c1)[C@@H]1C=CC[C@@H]1[C@H](c1ccc(S(=O)(=O)N3CCOCC3)cc1)N2` as the compound, how does the calcium mobilization (agonist) read?
**A.** 0%

**Q.** With `COc1ccc(NC(=O)C(c2ccccc2)N(C)C(=O)c2ccc(=O)[nH]c2)cc1` (centres undefined) as the compound, how does the calcium mobilization (agonist) read?
**A.** 0% (inactive)

**Q.** For `CCCCOC(=O)c1c(C)oc2ccc(NS(=O)(=O)c3ccc4c5c(cccc35)C(=O)N4)cc12`, which calcium mobilization (agonist) is on record?
**A.** 0% (inactive)

**Q.** With `NS(=O)(=O)c1ccc2c(c1)C1C=CCC1C(C1CC=CCC1)N2` (centres undefined) as the compound, how does the calcium mobilization (agonist) read?
**A.** 0% (inactive)

**Q.** Which calcium mobilization (agonist) does the source give for `Oc1ccc(-c2nc(-c3ccc(O)c(O)c3)cs2)cc1` here?
**A.** 0% (inactive)

**Q.** How did the calcium mobilization (agonist) turn out when `Cc1ccc2c(c1)[C@H]1OCC[C@H]1[C@@H](c1ccncc1)N2` was run?
**A.** 0% (inactive)

**Q.** How did the calcium mobilization (agonist) turn out when `O=C1NC(c2ccc(Br)cc2)Nc2sc3c(c21)CCC3` (centres undefined) was run?
**A.** 50% (inactive)

**Q.** For `CCC(=O)Oc1ccc(C(CC)C(CC)c2ccc(OC(=O)CC)cc2)cc1` (centres undefined), which calcium mobilization (agonist) is on record?
**A.** 0% (inactive)

**Q.** With `Cc1cc(C)c2c(c1)NC(c1cc3c(cc1Br)OCO3)C1CC=CC21` (centres undefined) as the compound, how does the calcium mobilization (agonist) read?
**A.** 50% (inactive)

**Q.** How did the calcium mobilization (agonist) turn out when `COc1cccc2c1NC(C(=O)O)C1CC=CC21` (centres undefined) was run?
**A.** 0% (inactive)

**Q.** With `O=C(O)c1ccc2c(c1)C1C(Cl)C(Sc3ccccc3[N+](=O)[O-])CC1C(c1cccc([N+](=O)[O-])c1)N2` (centres undefined) as the compound, how does the calcium mobilization (agonist) read?
**A.** 0%

**Q.** With `CC(=O)c1ccc2c(c1)C1C(Cl)C(Sc3ccccc3[N+](=O)[O-])CC1C(c1ccccc1)N2` (centres undefined) as the compound, how does the calcium mobilization (agonist) read?
**A.** 0% (inactive)

**Q.** For `CCc1nc2sc3ccccc3c(=O)c2c(=O)n1Cc1ccco1`, which calcium mobilization (agonist) is on record?
**A.** 0% (inactive)

**Q.** With `COc1ccc(OC)c(C2Nc3c(Cl)ccc(C(=O)O)c3C3C=CCC32)c1` (centres undefined) as the compound, how does the calcium mobilization (agonist) read?
**A.** 50% (inactive)

**Q.** `COc1cccc(C2Nc3c(F)cc(Br)cc3C3C=CCC32)c1OC` (centres undefined) was tested. Which calcium mobilization (agonist) did it give?
**A.** 0% (inactive)

**Q.** For `Cc1cc(C(=O)Nc2sc3c(c2C#N)CCC3)no1`, which calcium mobilization (agonist) is on record?
**A.** 0% (inactive)

**Q.** With `O=C(NC1CC1)c1ccc2c(c1)C1C3CCC(C3)C1C(c1ccccc1)N2` (centres undefined) as the compound, how does the calcium mobilization (agonist) read?
**A.** 100%

**Q.** With `O=C(Nc1cc(C(F)(F)F)ccc1N1CCOCC1)C1Cc2ccccc2CN1C(=O)c1ccco1` (centres undefined) as the compound, how does the calcium mobilization (agonist) read?
**A.** 0% (inactive)

**Q.** How did the calcium mobilization (agonist) turn out when `O=C(O)C1Nc2c(C(=O)N3CCOCC3)cccc2C2C=CCC12` (centres undefined) was run?
**A.** 0% (inactive)

**Q.** Which calcium mobilization (agonist) does the source give for `CCc1ccc2c(c1)[C@H]1OCC[C@H]1[C@@H](c1cccs1)N2` here?
**A.** 50% (inactive)

**Q.** Which calcium mobilization (agonist) does the source give for `CC(=O)c1ccc2c(c1)C1C=CCC1C(c1ccc(S(=O)(=O)N3CCOCC3)cc1)N2` (centres undefined) here?
**A.** 100%

**Q.** With `COc1cc(C2Nc3c(F)cccc3C3C=CCC32)cc(Br)c1OC` (centres undefined) as the compound, how does the calcium mobilization (agonist) read?
**A.** 0% (inactive)

**Q.** `CC(C)(C)NC(=O)c1ccc2c(c1)C1C3CCC(C3)C1C(c1ccccc1)N2` (centres undefined) was tested. Which calcium mobilization (agonist) did it give?
**A.** 100%

**Q.** With `COc1ccc2c(c1)C1C=CCC1C(c1cc3c(cc1Br)OCO3)N2` (centres undefined) as the compound, how does the calcium mobilization (agonist) read?
**A.** 100%

**Q.** Which calcium mobilization (agonist) does the source give for `Cc1nnc(SCC(=O)NC(=O)NCc2ccco2)n1Cc1ccccc1` here?
**A.** 0% (inactive)

**Q.** Which calcium mobilization (agonist) does the source give for `O=C(c1cc2ncc(Br)cn2n1)N1CCN(C(=O)c2ccco2)CC1` here?
**A.** 0% (inactive)

**Q.** For `CC(C)C1Nc2c(O)cc(Cl)c([N+](=O)[O-])c2C2C=CCC21` (centres undefined), which calcium mobilization (agonist) is on record?
**A.** 100%

**Q.** How did the calcium mobilization (agonist) turn out when `Cc1ccc2c(c1Cl)NC(C(=O)O)C1CC(Sc3ccccc3[N+](=O)[O-])C(Cl)C21` (centres undefined) was run?
**A.** 0%

**Q.** Which calcium mobilization (agonist) does the source give for `CC(=O)Nc1ccc(OC(=O)CC2SC(=O)NC2=O)cc1` (centres undefined) here?
**A.** 0% (inactive)

**Q.** `CCCNC(=O)c1ccc2c(c1)C1C3CCC(C3)C1C(c1ccccc1)N2` (centres undefined) was tested. Which calcium mobilization (agonist) did it give?
**A.** 100%

**Q.** `CCNC(=O)c1ccc2c(c1)C1C3CCC(C3)C1C(c1ccccc1)N2` (centres undefined) was tested. Which calcium mobilization (agonist) did it give?
**A.** 100%

**Q.** Which calcium mobilization (agonist) does the source give for `Cc1cc([N+](=O)[O-])c2c(c1C)C1C=CCC1C(c1ccccn1)N2` (centres undefined) here?
**A.** 0% (inactive)

**Q.** With `COc1cccc(NS(=O)(=O)c2ccc3c(c2)C2C=CCC2C(c2ccc(C(=O)O)cc2)N3)c1` (centres undefined) as the compound, how does the calcium mobilization (agonist) read?
**A.** 0%

**Q.** With `CCC(=O)Oc1ccc(/C(CC)=C(\CC)c2ccc(OC(=O)CC)cc2)cc1` as the compound, how does the calcium mobilization (agonist) read?
**A.** 0% (inactive)

**Q.** Which calcium mobilization (agonist) does the source give for `C[C@]12CC[C@@H]3c4ccc(O)cc4[C@@H](O)C[C@H]3[C@@H]1CC[C@@H]2O` here?
**A.** 0% (inactive)

**Q.** For `C[C@H]1CCC[C@@H](O)CCC/C=C/c2cc(O)cc(O)c2C(=O)O1`, which calcium mobilization (agonist) is on record?
**A.** 50% (inactive)

**Q.** For `Cc1ccc2c(c1)C1C=CCC1C(C(=O)O)N2` (centres undefined), which calcium mobilization (agonist) is on record?
**A.** 0% (inactive)

**Q.** With `Cn1ccnc1SCC(=O)Nc1ccc2nc(SCC(=O)NC3CC3)sc2c1` as the compound, how does the calcium mobilization (agonist) read?
**A.** 0% (inactive)

Source: PubChem BioAssay AID1213 (NMMLSC, 2008)
